In patent US20100048923A1, “ATR Inhibitor” (priority 2005, published 2010):

Key:
ATR = target: T1, ATR (Homo sapiens, UniProt Q13535); assay: ATR protein kinase activity (Flag-ATR immunoprecipitate, PHAS-I substrate, 32P-ATP); type: biochemical; conditions: 300 μM ATP, 20 minutes at 30° C., estimated from lines, read-out: IC50 for the phosphorylating activity of ATR
T1 construct: made in house; host or cells: 293T cells (ATCC: CRL-11268), transient transfection of pcDNA3.1 plasmid, anti-Flag M2 immunoprecipitate
Procedure: 1 μg of recombinant PHAS-I protein (Alexis Biochemicals) as a substrate, and Schizandrin B were added to mixtures of ATR and ATM for the kinase reaction as prepared in accordance with a Preparation of mixtures of ATR and ATM for kinase reaction as follows. 300 μM of ATP containing a suitable concentration of ^32P-ATP was added to react it for 20 minutes at 30° C. 4 volumes of SDS sample loading buffer (200 mM Tris-HCl (pH 6.8), 400 mM DTT and 8% SDS) were added to the reaction mixture to stop the reaction, and the obtained mixture is applied to 12% SDS-PAGE. After the gel as obtained was dried, […] corresponding to the band of ^32P—PHAS-I in the mixture was evaluated using autoradiography method. In the Figure, (A) and (B) indicate the relative activities of ATR and ATM, respectively, the horizontal axis indicates the concentration of Schizandrin B, and the vertical axis indicates the relative value of the count as obtained in Schizandrin B-treated group to that of no-addition of Schizandrin B group.
IC50s of the compounds for the phosphorylating activity of ATR were estimated based on the lines as obtained in accordance with Embodiment 7-1, except that, in Embodiment 7-1, the compounds of the Formulas (1) to (5) and the compound of the Formula (C) were used instead of Schizandrin B. The values are shown in Table 3.
ATR conjugated with Flag as constructed with conventional method as disclosed in, e.g. Non-Patent-Related Document 9 was used for a mixture of ATR for kinase reaction. In detail, Bam H1H-Swa I fragment of ATR gene (Sequence Number 4) (1 kb) was substituted with a gene having the ATR gene and Flag ([…]) at N terminal and the gene was amplified with PCR. So obtained gene product was introduced into pcDNA3.1, and target product was obtained from the plasmid. In addition, ATM conjugated with Flag as manufactured in accordance with the well-known method as disclosed in e.g. non-patent related documents 10 and 11 and using Quikchange site-Directed Mutagenesis Kit (Stratagene) was used for a mixture of ATM for kinase reaction.
These ATR and ATM plasmids tagged with Flag (Sequence Numbers 4 and 5) were transfected in 293T cells (ATCC: CRL-11268) by Calcium phosphate method as followed. After 2 days, 5 mg of cellular proteins were prepared using IP buffer in accordance with the Preparation of proteins as mentioned below instead of the UTB buffer, and ATR and ATM were immuno-precipitated with 20 μg of anti-Flag M2 monoclonal antibody (Sigma) for 4 hours at […], independently. The precipitates were incubated with beads conjugated with protein G cepharose (Amersham). […]

A549 cells = assay: G2/M checkpoint: cells containing phosphorylated histone H3 (flow cytometry) in UV-irradiated A549 cells; type: cell-based; conditions: 30 μM compound, 20 J/m^2 UV, ratio of G2/M (phospho-histone H3) cells to total, Control 1.88, UV irradiation alone 0.52
Procedure: A549 cells were seeded as 3×10^4 cells/cm^2 in the growth medium on 10 cm dish and incubated for overnight. Then, Schizandrin B was added to the medium as final concentration of 30 μM. At 1 hour after the addition of Schizandrin B, the medium was removed, and were irradiated with 20 J/m^2 and 50 J/m^2 of UV. After the UV irradiation, and then the cells were incubated in the Schizandrin B-containing medium having the same concentration as mentioned above for 1 hour. Then, the percentage of the cells containing phosphorylated histone H3 were measured in accordance with a Measurement of the phosphorylated histone H3 as mentioned below. The FIG. 2(A) is a result of flowcytometry as obtained in the treatment with Schizandrin B. In the FIG. 2(A), the encircled portion indicates the cell group in G2/M phase, numbers as mentioned above the portion indicates the ratio of the cells in G2/M phase to the total number of cells. In addition, the FIG. 2(B) indicates a graph showing the ratio.
Ratios of the cells in G2/M phase to the total number of cells were obtained in accordance with the Embodiment 2-1, except that, in the Embodiment 2-1, 20 J/m^2 of UV were irradiated instead of 20 J/m^2 and 50 J/m^2 of UV and the compounds of the formulas (1) to (10) and Angeloyl Gomisin A of a formula (C) (final concentration of 30 μM) as mentioned below were used instead of the final concentration of 30 μM of Schizandrin B. The result is shown in Table 1.
The cells were harvested and fixed with 70% ice-cooled ethanol after the washing with PBS. PBS containing 0.25% Triton X-100 was added, and the cells were stood on ice for 30 minutes. Cells were centrifuged (500×g, 5 minutes) and replaced to PBS containing 1% bovine serum albumin (BSA) and 1 μg of […] (specifically binding to the phosphorylated histone H3 at 13 Serine), and incubated for 4 hours at room temperature.
After the subsequent washes with PBS containing 1% BSA, goat anti-rabbit IgG antibody conjugated with FITC which diluted with 100 times with PBS containing 1% BSA was added, and incubated for 30 minutes at dark place. These cells were counterstained with PI in accordance with the FACS analysis as mentioned below. The percentage of cells containing phosphorylated histone H3 was measured and evaluated with flowcytometry (Beckman-Coulter).

[1] = test system: P-p53 (Ser15) in A549 cells; assay: Phosphorylation of p53 at serine 15 in UV-irradiated A549 cells (immunoblot); type: cell-based; conditions: Homo sapiens, light or radiation study, 3 h, 30 μM compound, 25 J/m^2 UV, UV irradiation alone = 100%, Control 15.4, read-out: Relative rate of P-p53 (Ser15) band intensity
Procedure: A549 cells were seeded as 3×10^4 cells/cm^2 in the growth medium on 10 cm dish, incubated for overnight, and Schizandrin B was added in the medium as final concentration of 30 μM in the medium. After 1 hour incubation, the medium was removed, irradiated with 20 J/m^2 of UV, and incubated for 3 hours (hereinafter, referred to as “UV-cell group” with regard to the obtained cells).
It should be noted that both groups of the UV-cell group and IR-cell group were cultured in the presence of 50 μM of N-acetyl-L-Leucyl-L-Leucyl-L-norleucinal (Sigma, Mo., USA) (hereinafter, referred to as “LLnL”) from 15 minutes prior to the irradiation to collection of the cells as mentioned below. Protein in the cells were extracted in accordance with a Preparation of proteins as mentioned below, immunoblot analysis was performed with regard to the phosphorylated p53 at 15 serine (P-p53 (Ser 15)), p53 protein (p53), phosphorylated ATM protein at 1981 serine (P-ATM (Ser1981)) and glyceraldehyde-3-phosphate dehydrogenase (GAPDH) in accordance with an Immunoblot analysis as mentioned below.
The dose-depended effect of Schizandrin B on the phosphorylation of p53 in A549 cells irradiated with UV A549 cells were seeded as 3×10^4 cells/cm^2 in the growth medium on 10 cm dish, incubated for overnight, and Schizandrin B was added in the medium as final concentration of 10, 30 and 100 μM in the medium. After 1 hour incubation, the medium was removed, and the cells were irradiated with 20 J/m^2 of UV. The cells were treated with LLnL as mentioned in Embodiment 4. Then, expression of p53 and phosphorylated p53 at 15 serine (P-p53 (Ser15)) in the cells treated with the same concentration of Schizandrin B as mentioned above was examined.
Expression of phosphorylated p53 at 15 serine (P-p53 (Ser15)) was examined in accordance with Embodiment 5-1, except that, in Embodiment 5-1, compounds of the Formulas (1) to (10) and the compound of the Formula (C) (final concentration of 30 μM) were added in the medium instead of the addition of final concentration of 10, 30 and 100 μM of Schizandrin B in the medium, and 25 J/m^2 of UV was irradiated instead of the 20 J/m^2 of UV irradiation. Electrophoresis image as obtained is shown in FIG. 5-2, and relative ratio of the band intensity corresponding to P-p53 (Ser15) to that of the band as obtained in the irradiation with UV as 100% is shown in Table 2.
50 μg of cellular proteins (as prepared in accordance with the Preparation of proteins as mentioned below) were applied to SDS polyacrylamide gel electrophoresis (12.5%), the electrophored proteins were transferred into the nitrocellulose membrane in accordance with the standard method, and blocking reaction was performed for 1 hour at room temperature using Tris-buffered saline (TBS-T) containing 5% skim milk and 0.1% Triton X-100. So obtained membrane were incubated with the desired adequate antibodies as mentioned below for 16 hours at 4° C., and then incubated with secondary anti-serum (corresponding to the animal originated from the desired antibodies) conjugated with horseradish peroxidase for 1 hour at room temperature. Then, the target proteins were visualized with ECL reaction kit (Amersham) and chemiluminescence film (Amersham) to obtain a protein image.
The cells were harvested with ice-cooled PBS from the culture dish, and were washed twice with cooled PBS. Then, it was centrifuged to obtain cell pellet. The pellet was solubilized with UTB buffer as mentioned below to prepare cellular protein. The content of the proteins was measured with Protein Assay kit (Bio-Rad).

ATM = target: T2, ATM (Homo sapiens, UniProt Q13315); conditions: caffeine, literature; cited from earlier work
T2 construct: made in house; host or cells: 293T cells (ATCC: CRL-11268), transient transfection, anti-Flag M2 immunoprecipitate

T1 sequence (Q13535 whole entry A92R): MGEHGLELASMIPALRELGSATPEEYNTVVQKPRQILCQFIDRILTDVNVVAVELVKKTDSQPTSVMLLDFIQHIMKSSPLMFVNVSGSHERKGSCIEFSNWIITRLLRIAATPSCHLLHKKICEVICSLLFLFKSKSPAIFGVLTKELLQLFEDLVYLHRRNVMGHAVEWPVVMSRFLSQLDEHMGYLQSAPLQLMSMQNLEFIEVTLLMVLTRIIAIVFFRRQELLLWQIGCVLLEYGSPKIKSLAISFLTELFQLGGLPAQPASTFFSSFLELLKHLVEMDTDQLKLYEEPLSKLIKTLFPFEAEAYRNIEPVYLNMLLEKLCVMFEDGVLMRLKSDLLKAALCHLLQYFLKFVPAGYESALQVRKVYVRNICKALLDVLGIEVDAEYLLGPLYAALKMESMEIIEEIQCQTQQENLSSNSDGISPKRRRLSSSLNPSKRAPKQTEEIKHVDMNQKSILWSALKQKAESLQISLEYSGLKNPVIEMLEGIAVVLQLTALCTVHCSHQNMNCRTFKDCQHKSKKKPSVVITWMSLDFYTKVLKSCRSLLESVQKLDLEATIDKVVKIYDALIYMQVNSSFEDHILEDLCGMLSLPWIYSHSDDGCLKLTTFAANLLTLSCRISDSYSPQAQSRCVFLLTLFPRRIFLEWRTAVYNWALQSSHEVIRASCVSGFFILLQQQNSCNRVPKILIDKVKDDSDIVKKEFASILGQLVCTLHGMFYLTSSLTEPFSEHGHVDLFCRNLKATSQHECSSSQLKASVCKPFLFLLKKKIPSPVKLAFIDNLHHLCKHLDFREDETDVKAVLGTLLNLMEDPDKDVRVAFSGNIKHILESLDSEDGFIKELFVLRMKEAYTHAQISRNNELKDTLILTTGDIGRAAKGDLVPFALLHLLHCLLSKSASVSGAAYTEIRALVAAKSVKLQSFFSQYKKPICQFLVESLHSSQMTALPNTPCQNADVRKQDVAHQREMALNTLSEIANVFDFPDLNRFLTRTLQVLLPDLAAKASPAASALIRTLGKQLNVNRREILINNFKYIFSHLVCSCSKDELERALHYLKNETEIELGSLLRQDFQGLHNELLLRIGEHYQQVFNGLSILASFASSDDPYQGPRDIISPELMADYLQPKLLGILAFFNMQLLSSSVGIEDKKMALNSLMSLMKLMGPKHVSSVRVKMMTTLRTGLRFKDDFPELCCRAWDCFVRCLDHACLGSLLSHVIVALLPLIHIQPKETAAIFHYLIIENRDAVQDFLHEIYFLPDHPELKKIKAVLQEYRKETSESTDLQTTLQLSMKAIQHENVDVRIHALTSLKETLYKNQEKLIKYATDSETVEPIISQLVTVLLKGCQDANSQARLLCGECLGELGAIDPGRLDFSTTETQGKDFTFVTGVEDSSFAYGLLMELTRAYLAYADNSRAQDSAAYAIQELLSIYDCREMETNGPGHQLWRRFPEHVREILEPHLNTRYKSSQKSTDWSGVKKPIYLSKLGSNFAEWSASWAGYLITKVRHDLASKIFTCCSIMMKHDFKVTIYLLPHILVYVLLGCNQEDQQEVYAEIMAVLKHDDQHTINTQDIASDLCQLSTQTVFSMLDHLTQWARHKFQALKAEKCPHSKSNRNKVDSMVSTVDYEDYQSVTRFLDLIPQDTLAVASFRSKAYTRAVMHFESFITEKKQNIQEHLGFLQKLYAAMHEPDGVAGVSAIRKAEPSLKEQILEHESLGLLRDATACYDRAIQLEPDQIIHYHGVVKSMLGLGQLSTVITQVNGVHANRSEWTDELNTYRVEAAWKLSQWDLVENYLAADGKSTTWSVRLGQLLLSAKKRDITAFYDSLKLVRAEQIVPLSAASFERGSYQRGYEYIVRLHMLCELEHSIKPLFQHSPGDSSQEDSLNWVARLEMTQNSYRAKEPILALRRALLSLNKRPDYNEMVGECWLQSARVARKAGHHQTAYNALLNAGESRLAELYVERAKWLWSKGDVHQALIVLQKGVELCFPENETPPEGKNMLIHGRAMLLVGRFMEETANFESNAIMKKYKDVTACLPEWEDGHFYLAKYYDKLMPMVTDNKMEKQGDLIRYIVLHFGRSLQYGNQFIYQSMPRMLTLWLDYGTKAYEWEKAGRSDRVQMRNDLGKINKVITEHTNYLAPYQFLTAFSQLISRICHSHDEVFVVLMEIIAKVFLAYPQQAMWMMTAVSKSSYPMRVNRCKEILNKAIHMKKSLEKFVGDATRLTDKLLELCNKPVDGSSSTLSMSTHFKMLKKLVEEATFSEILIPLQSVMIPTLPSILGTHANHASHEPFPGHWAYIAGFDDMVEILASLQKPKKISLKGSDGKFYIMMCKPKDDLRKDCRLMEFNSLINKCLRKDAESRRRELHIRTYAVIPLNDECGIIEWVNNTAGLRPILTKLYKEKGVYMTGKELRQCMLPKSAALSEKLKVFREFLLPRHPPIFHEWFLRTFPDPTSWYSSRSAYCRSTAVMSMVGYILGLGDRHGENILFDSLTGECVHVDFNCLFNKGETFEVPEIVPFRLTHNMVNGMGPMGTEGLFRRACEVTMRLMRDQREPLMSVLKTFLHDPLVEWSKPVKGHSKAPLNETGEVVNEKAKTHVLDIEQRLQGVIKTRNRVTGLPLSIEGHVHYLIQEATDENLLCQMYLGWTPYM

| SMILES | IC50 (ATR) [µM] | Rate of Divided cells (A549 cells) [%] | activity at 30 µM [1] [%] | IC50 for ATM relative to that of ATR (ATM) |
| --- | --- | --- | --- | --- |
| C/C=C(\C)C(=O)O[C@@]1(C)Cc2cc(OC)c(OC)c(OC)c2-c2c(cc3c(c2OC)OCO3)C[C@@H]1C (atropisomer, axis not shown) [AGA, Angeloyl Gomisin A, reference compound] | 111 | 1.04 ± 0.06 | 92.2 |  |
| COc1cc2c(c(OC)c1OC)-c1c(cc3c(c1OC)OCO3)C[C@H](C)[C@@](C)(O)C2 (atropisomer, axis not shown) [GA, Gomisin A] |  | 0.90 ± 0.07 | 58.3 |  |
| C/C=C(/C)C(=O)O[C@H]1c2cc(OC)c(OC)c(OC)c2-c2c(cc3c(c2OC)OCO3)C[C@H](C)[C@@]1(C)O (atropisomer, axis not shown) [GB, Gomisin B] |  | 0.85 ± 0.12 | 60.9 |  |
| COc1cc2c(c(OC)c1OC)-c1c(cc3c(c1OC)OCO3)C[C@H](C)[C@@](C)(O)[C@H]2OC(=O)c1ccccc1 (atropisomer, axis not shown) [GC, Gomisin C] | 10.6 |  |  |  |
| COc1cc2c(c(OC)c1OC)-c1c(cc3c(c1OC)OCO3)C[C@H](C)[C@](C)(O)[C@H]2OC(=O)c1ccccc1 (atropisomer, axis not shown) [GC, Gomisin C] |  | 1.16 ± 0.16 | 49.8 |  |
| COc1cc2c(c(OC)c1OC)-c1c(cc3c(c1OC)OCO3)[C@H](OC(=O)c1ccccc1)[C@](C)(O)[C@@H](C)C2 (atropisomer, axis not shown) [GG, Gomisin G] | 32 | 1.13 ± 0.05 | 51.3 |  |
| COc1cc2c(c(O)c1OC)-c1c(cc(OC)c(OC)c1OC)C[C@](C)(O)[C@@H](C)C2 (atropisomer, axis not shown) [GH, Gomisin H] | 45.7 | 1.42 ± 0.03 | 50.3 |  |
| COc1cc2c(c(OC)c1OC)-c1c(cc3c(c1OC)OCO3)C[C@@H](C)[C@@H](C)C2 (atropisomer, axis not shown) [GN, Gomisin N] |  | 0.88 ± 0.12 | 38.4 |  |
| COc1cc2c(c(OC)c1OC)-c1c(cc(OC)c(OC)c1OC)C[C@](C)(O)[C@@H](C)C2 (atropisomer, axis not shown) [S, Schizandrin] |  | 0.68 ± 0.04 | 42.7 |  |
| COc1c2c(cc3c1-c1c(cc4c(c1OC)OCO4)C[C@H](C)[C@H](C)C3)OCO2 (atropisomer, axis not shown) [SchC, Schizandrin C] |  | 0.68 ± 0.11 | 42.6 |  |
| Cn1c(=O)c2c(ncn2C)n(C)c1=O [Caffeine, 3,7-dihydro-1,3,7-trimethyl-1H-purine-2,6-dione] |  |  |  | ⅕ |
